Results from PubChem BioAssay (NCI).
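96-well plates; 48 h exposure; 5 concentrations. Endpoints by linear interpolation between flanking doses. Not reached: highest tested concentration assigned. GI50 marks 50% less growth. TGI denotes the concentration required for complete inhibition of growth.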

Legend:
Test in all cases: NCI tumour cell line growth inhibition, 48 h
[1] = system: CCRF-CEM leukemia
[2] = system: HOP-92 NSCLC
[3] = system: IGROV1 ovarian
[4] = system: M14 melanoma
[5] = system: NCI-H522 lung
[6] = system: OVCAR-3 ovarian
[7] = system: SK-OV-3 ovarian
[8] = system: UO-31 renal
[9] = system: SNB-19 CNS

SMILES	GI50 [1] [µM]	TGI [1] [µM]	GI50 [2] [µM]	TGI [2] [µM]	GI50 [3] [µM]	TGI [3] [µM]	GI50 [4] [µM]	TGI [4] [µM]	GI50 [5] [µM]	TGI [5] [µM]	GI50 [6] [µM]	TGI [6] [µM]	GI50 [7] [µM]	TGI [7] [µM]	GI50 [8] [µM]	TGI [8] [µM]	TGI [9] [µM]
CC(C)(C)NCC(O)COc1c(Br)c(Br)c(Br)c2c1OC(C)(C)C2 (stereo not given)	1.97	3.76	1.52	3.17	1.77	3.36	1.81	3.66	1.99	3.81	1.54	3.11	1.83	3.3	1.76	3.23	–
Clc1ccccc1CN1COc2c(ccc3cccnc23)C1	–	1.74	–	7.6	–	11.6	–	10.8	–	4.53	–	11.2	–	19.9	–	7.2	> 100
CC1CC2(S(=O)(=O)c3ccccc3)ON1CC2S(=O)(=O)c1ccccc1 (stereo not given)	–	> 100	–	–	–	> 100	–	> 100	–	> 100	–	> 100	–	> 100	–	> 100	> 100
O=C1CCC2(c3ccccc3)Nc3ccccc3N12 (stereo not given)	–	> 100	–	> 100	–	> 100	–	> 100	–	> 100	–	> 100	–	–	–	> 100	–
CN/N=C(/c1nc2ccc([N+](=O)[O-])cc2[nH]c1=O)C(O)c1ccc(C(O)/C(=N\NC)c2nc3ccc([N+](=O)[O-])cc3[nH]c2=O)cc1 (stereo not given)	–	> 100	–	> 100	–	> 100	–	> 100	–	–	–	> 100	–	> 100	–	> 100	> 100
CCOc1ccc(N=C(NC(=O)c2ccccc2)SC)cc1	–	> 100	–	> 100	–	> 100	–	> 100	–	–	–	> 100	–	> 100	–	> 100	> 100
CO[C@H]1/C=C/O[C@@]2(C)Oc3c(C)c(O)c4c(O)c(c(/C=N/N5CCN(C)CC5)c(O)c4c3C2=O)NC(=O)/C(C)=C\C=C\[C@H](C)[C@H](O)[C@@H](C)[C@@H](O)[C@@H](C)[C@H](OC(C)=O)[C@@H]1C	–	81.8	–	–	–	> 100	–	> 100	–	–	–	> 100	–	> 100	–	> 100	–
N=c1c2ccccc2sc2nc3ccccc3n12	–	> 100	–	> 100	–	> 100	–	–	–	> 100	–	–	–	> 100	–	> 100	> 100
COc1ccc(/C=C2\CCC(CCN(C)C)(C3=CCCC3)C2=O)cc1 (stereo not given)	–	53	–	54.1	–	33.2	–	28.3	–	31.2	–	49.7	–	–	–	28.2	31.6
COC(=O)c1cc(=O)nc2cc3cccccc3n12	–	> 100	–	–	–	> 100	–	> 100	–	> 100	–	> 100	–	> 100	–	> 100	> 100
